Common to all, as to type: ADME
The target in one data set is Cytochrome P450 2C9 (Homo sapiens, UniProt P11712). Put plainly: Inhibition of CYP2C9 in human liver microsomes using diclofenac as substrate after 5 to 30 mins by LC-MS/MS analysis. In general terms: Microsomes from liver hold many membrane-bound enzymes, among them those of drug oxidation.
For another data set, the target named is Cytochrome P450 2C19 (Homo sapiens, UniProt P33261). Briefly: Inhibition of CYP2C19 in human liver microsomes using (S)-Mephenytoin as substrate after 5 to 30 mins by LC-MS/MS analysis.
A further data set deals with Cytochrome P450 2D6 (Homo sapiens, UniProt P10635). Put plainly: Inhibition of CYP2D6 in human liver microsomes using dextromethorphan as substrate after 5 to 30 mins by LC-MS/MS analysis.
For another data set, the target named is Cytochrome P450 2E1 (Homo sapiens, UniProt P05181). Put plainly: Inhibition of CYP2E1 in human liver microsomes using chlorzoxazone as substrate after 5 to 30 mins by LC-MS/MS analysis.
Data set [1] concerns the target T1, Cytochrome P450 3A4 (Homo sapiens, UniProt P08684). Put plainly: Inhibition of CYP3A4 in human liver microsomes using midazolam as substrate after 5 to 30 mins by LC-MS/MS analysis.
For data set [2], the target named is T1, Cytochrome P450 3A4. Put plainly: Inhibition of CYP3A4 in human liver microsomes using testosterone as substrate after 5 to 30 mins by LC-MS/MS analysis.
For data set [3], the target named is T2, Cytochrome P450 2C8 (Homo sapiens, UniProt P10632).
T2 sequence (P10632 whole entry): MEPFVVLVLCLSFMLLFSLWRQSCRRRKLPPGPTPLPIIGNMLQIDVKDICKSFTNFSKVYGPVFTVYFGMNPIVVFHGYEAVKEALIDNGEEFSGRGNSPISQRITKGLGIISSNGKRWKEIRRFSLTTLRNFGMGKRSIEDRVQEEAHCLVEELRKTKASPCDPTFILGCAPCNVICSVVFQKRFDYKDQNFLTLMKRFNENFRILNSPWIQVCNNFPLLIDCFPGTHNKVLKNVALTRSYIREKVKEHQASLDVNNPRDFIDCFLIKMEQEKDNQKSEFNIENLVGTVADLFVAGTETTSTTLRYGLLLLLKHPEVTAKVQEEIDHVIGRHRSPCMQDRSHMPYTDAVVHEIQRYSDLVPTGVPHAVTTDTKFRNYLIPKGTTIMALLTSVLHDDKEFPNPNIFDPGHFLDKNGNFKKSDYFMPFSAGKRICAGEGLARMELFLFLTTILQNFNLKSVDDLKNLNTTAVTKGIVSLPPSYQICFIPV
Put plainly: Biphasic inhibition of CYP2C8 in human liver microsomes assessed as montelukast 36-hydroxylation after 20 mins by LC-MS/MS analysis.

The target in a further data set is T3, Cytochrome P450 1A2 (Homo sapiens, UniProt P05177).
T3 sequence (P05177 whole entry): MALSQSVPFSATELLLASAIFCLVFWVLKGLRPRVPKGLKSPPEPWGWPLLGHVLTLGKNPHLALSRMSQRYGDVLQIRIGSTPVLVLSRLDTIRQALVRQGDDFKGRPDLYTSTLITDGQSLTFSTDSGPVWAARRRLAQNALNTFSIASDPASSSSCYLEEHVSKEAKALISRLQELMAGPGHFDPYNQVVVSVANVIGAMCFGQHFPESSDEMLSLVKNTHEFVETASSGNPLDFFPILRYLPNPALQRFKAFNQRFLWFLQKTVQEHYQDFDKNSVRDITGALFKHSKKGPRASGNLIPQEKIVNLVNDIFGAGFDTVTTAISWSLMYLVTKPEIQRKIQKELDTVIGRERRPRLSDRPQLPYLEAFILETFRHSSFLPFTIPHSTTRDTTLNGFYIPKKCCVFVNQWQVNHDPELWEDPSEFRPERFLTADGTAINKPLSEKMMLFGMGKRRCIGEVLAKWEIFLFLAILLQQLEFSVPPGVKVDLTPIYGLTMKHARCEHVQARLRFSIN
Put plainly: Inhibition of CYP1A2 in human liver microsomes using phenacetin as substrate after 5 to 30 mins by LC-MS/MS analysis.

The next data set deals with T4, Cytochrome P450 2B6 (Homo sapiens, UniProt P20813).
T4 sequence (P20813 whole entry): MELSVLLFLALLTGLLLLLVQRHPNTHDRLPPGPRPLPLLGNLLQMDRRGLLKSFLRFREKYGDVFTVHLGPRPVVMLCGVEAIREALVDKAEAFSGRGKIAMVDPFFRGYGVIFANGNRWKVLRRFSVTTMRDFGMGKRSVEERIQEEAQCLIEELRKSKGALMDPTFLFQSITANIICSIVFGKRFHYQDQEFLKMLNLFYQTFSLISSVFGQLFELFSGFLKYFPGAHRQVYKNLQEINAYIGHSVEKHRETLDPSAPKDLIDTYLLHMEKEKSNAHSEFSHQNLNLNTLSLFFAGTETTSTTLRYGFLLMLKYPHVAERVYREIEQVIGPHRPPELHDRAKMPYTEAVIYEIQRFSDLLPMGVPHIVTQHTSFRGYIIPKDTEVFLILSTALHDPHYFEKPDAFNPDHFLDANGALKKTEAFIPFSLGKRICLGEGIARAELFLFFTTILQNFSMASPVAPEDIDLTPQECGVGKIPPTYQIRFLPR
Briefly: Inhibition of CYP2B6 in human liver microsomes using bupropion as substrate after 5 to 30 mins by LC-MS/MS analysis.

Data set [4] addresses UDP-glucuronosyltransferase 1A8 (Homo sapiens, UniProt Q9HAW9). Briefly: Drug metabolism assessed as human recombinant UGT1A8-mediated (2S,3S,4S,5R,6S)-6-(2-(4-(4-(tert-butylcarbamoyl)-2-(2-chloro-4-cyclopropylphenylsulfonamido)phenoxy)-5-chloro-2-fluorophenyl)acetoxy)-3,4,5-trihydroxytetrahydro-2H-pyran-2-carboxylic acid formation at 10 uM after 30 mins by LC-MS/MS analysis. The settings on record: recombinant enzyme, 0.5 h.

Data set [5] has as its target UDP-glucuronosyltransferase 1A6 (Homo sapiens, UniProt P19224). Briefly: Drug metabolism assessed as human recombinant UGT1A6-mediated (2S,3S,4S,5R,6S)-6-(2-(4-(4-(tert-butylcarbamoyl)-2-(2-chloro-4-cyclopropylphenylsulfonamido)phenoxy)-5-chloro-2-fluorophenyl)acetoxy)-3,4,5-trihydroxytetrahydro-2H-pyran-2-carboxylic acid formation at 10 uM after 30 mins by LC-MS/MS analysis. The settings on record: recombinant enzyme, 0.5 h.

Data set [6] deals with T2, Cytochrome P450 2C8. Briefly: Competitive inhibition of CYP2C8 in human liver microsomes assessed as rosiglitazone demethylation after 20 mins by LC-MS/MS analysis.
The target in the next data set is Cytochrome P450 3A7 (Homo sapiens, UniProt P24462). Briefly: Drug metabolism assessed as recombinant CYP3A7 (unknown origin)-mediated 2-(5-chloro-4-(2-(2-chloro-4-cyclopropylphenylsulfonamido)-4-(1-hydroxy-2-methylpropan-2-ylcarbamoyl)phenoxy)-2-fluorophenyl)acetic acid formation at 10 uM after 30 mins by LC-MS/MS analysis. The settings on record: recombinant enzyme, 0.5 h.

The subject of the next data set is Liver microsome. Put plainly: Drug metabolism in human liver microsomes assessed as 2-(4-(4-(tert-butylcarbamoyl)-2-(2-chloro-4-(1-hydroxycyclopropyl)phenylsulfonamido)phenoxy)-5-chloro-2-fluorophenyl)acetic acid formation at 2 uM after 60 mins by LC-MS/MS analysis in presence of montelukast. The settings on record: 1 h.

Cytochrome P450 2C19, sequence (P33261 whole entry): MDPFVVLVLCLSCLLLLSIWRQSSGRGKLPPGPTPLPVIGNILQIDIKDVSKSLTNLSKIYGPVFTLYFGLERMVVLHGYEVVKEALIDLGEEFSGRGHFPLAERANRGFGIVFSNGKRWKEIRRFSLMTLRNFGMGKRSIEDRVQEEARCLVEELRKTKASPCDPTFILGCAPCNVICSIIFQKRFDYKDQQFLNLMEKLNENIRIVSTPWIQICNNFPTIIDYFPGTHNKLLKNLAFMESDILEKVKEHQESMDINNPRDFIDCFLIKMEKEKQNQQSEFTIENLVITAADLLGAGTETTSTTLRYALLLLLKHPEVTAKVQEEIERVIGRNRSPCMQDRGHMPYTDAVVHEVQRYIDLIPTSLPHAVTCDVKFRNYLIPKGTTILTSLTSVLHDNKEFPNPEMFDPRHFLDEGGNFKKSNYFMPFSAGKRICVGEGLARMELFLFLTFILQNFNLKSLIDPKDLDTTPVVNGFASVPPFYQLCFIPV
Cytochrome P450 2E1, sequence (P05181 whole entry): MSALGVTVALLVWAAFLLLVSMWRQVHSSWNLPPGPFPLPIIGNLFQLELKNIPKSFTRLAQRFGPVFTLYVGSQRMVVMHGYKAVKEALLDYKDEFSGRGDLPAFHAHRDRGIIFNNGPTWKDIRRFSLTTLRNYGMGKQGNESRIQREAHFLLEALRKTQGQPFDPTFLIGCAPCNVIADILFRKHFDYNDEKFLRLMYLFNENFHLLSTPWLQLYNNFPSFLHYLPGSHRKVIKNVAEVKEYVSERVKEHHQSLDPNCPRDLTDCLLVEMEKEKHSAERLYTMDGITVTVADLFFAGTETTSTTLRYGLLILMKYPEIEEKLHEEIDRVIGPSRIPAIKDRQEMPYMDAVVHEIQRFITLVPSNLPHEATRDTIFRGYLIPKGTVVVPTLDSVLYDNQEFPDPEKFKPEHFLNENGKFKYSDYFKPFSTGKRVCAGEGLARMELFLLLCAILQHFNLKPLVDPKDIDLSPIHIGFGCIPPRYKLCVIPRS
Cytochrome P450 2D6, sequence (P10635 whole entry): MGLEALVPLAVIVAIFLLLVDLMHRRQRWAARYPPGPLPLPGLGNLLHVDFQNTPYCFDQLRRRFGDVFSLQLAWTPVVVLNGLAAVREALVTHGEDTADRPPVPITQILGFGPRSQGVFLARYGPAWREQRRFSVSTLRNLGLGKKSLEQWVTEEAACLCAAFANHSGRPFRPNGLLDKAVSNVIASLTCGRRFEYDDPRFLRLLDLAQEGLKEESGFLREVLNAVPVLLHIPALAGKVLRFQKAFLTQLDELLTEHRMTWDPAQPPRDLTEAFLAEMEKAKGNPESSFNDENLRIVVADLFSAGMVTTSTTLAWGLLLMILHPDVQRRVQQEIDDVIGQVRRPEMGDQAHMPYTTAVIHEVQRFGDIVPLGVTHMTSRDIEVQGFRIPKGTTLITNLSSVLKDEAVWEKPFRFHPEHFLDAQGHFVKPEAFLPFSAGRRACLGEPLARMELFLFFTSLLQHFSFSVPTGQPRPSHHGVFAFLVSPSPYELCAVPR
T1 sequence (P08684 whole entry): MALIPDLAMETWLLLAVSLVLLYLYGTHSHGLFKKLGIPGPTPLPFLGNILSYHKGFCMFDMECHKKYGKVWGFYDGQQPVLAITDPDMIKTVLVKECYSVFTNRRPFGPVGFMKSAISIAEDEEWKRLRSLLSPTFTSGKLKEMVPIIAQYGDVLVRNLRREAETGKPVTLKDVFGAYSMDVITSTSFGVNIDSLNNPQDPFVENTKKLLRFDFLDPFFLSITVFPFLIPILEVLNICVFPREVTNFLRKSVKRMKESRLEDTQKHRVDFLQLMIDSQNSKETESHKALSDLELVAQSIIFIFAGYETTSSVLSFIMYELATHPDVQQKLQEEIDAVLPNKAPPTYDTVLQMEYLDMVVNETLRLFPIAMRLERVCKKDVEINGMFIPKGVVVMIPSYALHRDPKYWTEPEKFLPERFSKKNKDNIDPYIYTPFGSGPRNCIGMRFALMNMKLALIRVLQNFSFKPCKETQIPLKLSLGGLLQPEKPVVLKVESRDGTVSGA
Cytochrome P450 2C9, sequence (P11712 whole entry): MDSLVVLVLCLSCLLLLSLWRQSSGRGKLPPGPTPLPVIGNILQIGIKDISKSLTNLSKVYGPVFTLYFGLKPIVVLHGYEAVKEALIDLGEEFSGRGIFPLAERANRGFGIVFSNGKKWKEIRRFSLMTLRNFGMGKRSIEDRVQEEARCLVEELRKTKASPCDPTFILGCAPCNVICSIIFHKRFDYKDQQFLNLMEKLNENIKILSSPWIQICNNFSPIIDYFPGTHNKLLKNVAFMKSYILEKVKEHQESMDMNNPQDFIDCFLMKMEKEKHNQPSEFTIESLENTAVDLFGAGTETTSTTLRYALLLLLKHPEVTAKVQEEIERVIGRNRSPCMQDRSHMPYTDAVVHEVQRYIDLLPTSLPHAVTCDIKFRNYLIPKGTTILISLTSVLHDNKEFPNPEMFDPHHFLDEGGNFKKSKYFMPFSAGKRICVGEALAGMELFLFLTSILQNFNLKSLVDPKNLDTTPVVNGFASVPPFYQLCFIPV
UDP-glucuronosyltransferase 1A6, sequence (P19224 whole entry): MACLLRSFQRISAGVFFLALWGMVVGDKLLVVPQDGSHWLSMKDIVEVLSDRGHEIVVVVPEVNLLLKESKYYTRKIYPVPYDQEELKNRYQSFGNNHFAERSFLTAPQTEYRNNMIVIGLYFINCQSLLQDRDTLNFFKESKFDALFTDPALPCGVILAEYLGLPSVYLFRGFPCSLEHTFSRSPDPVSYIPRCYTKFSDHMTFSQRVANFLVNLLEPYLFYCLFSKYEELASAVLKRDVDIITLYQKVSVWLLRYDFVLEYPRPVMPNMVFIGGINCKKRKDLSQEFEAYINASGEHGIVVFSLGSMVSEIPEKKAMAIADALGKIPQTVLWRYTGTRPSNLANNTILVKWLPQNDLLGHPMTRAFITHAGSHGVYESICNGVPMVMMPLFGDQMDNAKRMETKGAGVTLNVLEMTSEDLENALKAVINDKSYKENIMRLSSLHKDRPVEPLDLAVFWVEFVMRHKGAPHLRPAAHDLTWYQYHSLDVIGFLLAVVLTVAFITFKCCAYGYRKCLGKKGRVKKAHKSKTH
Cytochrome P450 3A7, sequence (P24462 whole entry): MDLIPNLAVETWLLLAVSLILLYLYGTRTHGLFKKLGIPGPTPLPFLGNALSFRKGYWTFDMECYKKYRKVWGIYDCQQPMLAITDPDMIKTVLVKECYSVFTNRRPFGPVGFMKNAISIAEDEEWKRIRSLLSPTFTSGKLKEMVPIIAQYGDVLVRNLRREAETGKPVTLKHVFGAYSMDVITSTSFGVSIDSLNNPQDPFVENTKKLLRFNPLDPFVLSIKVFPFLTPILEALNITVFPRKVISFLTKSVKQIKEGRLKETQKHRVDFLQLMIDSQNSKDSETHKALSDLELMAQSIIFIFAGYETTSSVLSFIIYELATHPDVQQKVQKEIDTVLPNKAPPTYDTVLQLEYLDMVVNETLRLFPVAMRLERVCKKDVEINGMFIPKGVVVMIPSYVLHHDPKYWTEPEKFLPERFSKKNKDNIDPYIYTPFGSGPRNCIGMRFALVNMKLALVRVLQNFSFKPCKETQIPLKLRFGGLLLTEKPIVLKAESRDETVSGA
UDP-glucuronosyltransferase 1A8, sequence (Q9HAW9 whole entry): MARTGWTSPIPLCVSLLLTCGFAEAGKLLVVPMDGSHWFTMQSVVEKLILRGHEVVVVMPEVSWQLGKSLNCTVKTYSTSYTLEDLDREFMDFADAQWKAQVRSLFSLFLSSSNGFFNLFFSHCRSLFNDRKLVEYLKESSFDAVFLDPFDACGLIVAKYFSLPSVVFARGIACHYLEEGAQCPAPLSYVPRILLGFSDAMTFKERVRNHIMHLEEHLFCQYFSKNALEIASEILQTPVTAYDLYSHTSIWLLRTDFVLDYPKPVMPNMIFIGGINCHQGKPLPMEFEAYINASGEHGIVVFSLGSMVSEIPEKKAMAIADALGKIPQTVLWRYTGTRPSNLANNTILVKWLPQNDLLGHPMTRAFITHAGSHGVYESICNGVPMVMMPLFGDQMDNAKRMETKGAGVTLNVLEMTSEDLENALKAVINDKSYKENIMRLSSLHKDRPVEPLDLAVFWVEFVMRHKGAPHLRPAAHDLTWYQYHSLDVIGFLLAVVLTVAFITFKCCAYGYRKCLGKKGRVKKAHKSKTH

In general, Ki refers to the equilibrium dissociation constant of an inhibitor or competing ligand from its target. As for `CC(C)(C)NC(=O)c1ccc(Oc2cc(F)c(CC(=O)O[C@@H]3O[C@H](C(=O)O)[C@@H](O)[C@H](O)[C@H]3O)cc2Cl)c(NS(=O)(=O)c2ccc(C3CC3)cc2Cl)c1`, the Ki at Cytochrome P450 2C9, at Cytochrome P450 2C19, at Cytochrome P450 2D6, on Cytochrome P450 2E1, at Cytochrome P450 3A4 [1] and at Cytochrome P450 3A4 [2] was above 30 µM throughout. The Ki is 7.3 µM on Cytochrome P450 2C8 [3], above 30 µM on Cytochrome P450 1A2 and above 30 µM on Cytochrome P450 2B6.
By IC50 is commonly meant the midpoint of a concentration-inhibition curve. Lower therefore signals higher potency. As to `CC(C)(C)NC(=O)c1ccc(Oc2cc(F)c(CC(=O)O)cc2Cl)c(NS(=O)(=O)c2ccc(C3CC3)cc2Cl)c1` [VIDUPIPRANT], the Drug metabolism entry is given as “metabolite_detected” in data set [4], “metabolite_not_detected” in [5], “metabolite_detected” at Cytochrome P450 3A7 and “metabolite_not_detected” with Liver microsome. Moreover, the IC50 at Cytochrome P450 2C9, against Cytochrome P450 2C19, at Cytochrome P450 2D6, at Cytochrome P450 2E1, against Cytochrome P450 3A4 [1] and on Cytochrome P450 3A4 [2] was at least 30 µM throughout. Besides, the 50% inhibitory concentration (IC50) against Cytochrome P450 1A2 and against Cytochrome P450 2B6 was at least 30 µM each time. The inhibitory constant (Ki) at Cytochrome P450 2C9, on Cytochrome P450 2C19, on Cytochrome P450 2D6, on Cytochrome P450 2E1, on Cytochrome P450 3A4 [1] and on Cytochrome P450 3A4 [2] was above 30 µM each time. Besides, the inhibition constant Ki was 6 µM at Cytochrome P450 2C8 [6], 1.8 µM on Cytochrome P450 2C8 [3], above 30 µM on Cytochrome P450 1A2 and above 30 µM on Cytochrome P450 2B6.

The values above are taken from ChEMBL document CHEMBL3526017, “Predicting the drug interaction potential of AMG 853, a dual antagonist of the D-prostanoid and chemoattractant receptor-homologous molecule expressed on T helper 2 cells receptors” (Drug Metab Dispos, 2012).
